Measurements: ChEMBL document CHEMBL1152381, “Investigation of aminopyridiopyrazinones as PDE5 inhibitors: Evaluation of modifications to the central ring system” (Bioorg Med Chem Lett, 2009)
In brackets after ≈: the same amount, converted by molar mass.

Assays:
[1] = target: cGMP-specific 3',5'-cyclic phosphodiesterase (Homo sapiens, UniProt O76074); assay: Inhibition of PDE5
[2] = Inhibition of PDE6
[3] = Inhibition of PDE11
[4] = Aqueous solubility at pH 7.4; type: physicochemical
[5] = Metabolic stability in human liver microsomes assessed as compound remaining after 30 mins; type: ADME, Microsome; details: read-out: Stability
hERG (KCNH2) = hERG (KCNH2) (Homo sapiens, UniProt Q12809); assay: Displacement of dofetilide from human ERG at 10 uM; details: probe dofetilide
[6] = Volume of distribution in Sprague-Dawley rat at 2 mg/kg, iv and 2 mg/kg, po; type: ADME, organism-based; details: in vivo
[7] = target: Voltage-gated inwardly rectifying potassium channel KCNH2 (Homo sapiens, UniProt Q12809); assay: Inhibition of human ERG by patch-clamp electrophysiology assay
[8] = Clearance in Sprague-Dawley rat at 2 mg/kg, iv and 2 mg/kg, po; type: ADME, organism-based; details: in vivo
[9] = Half life in Sprague-Dawley rat at 2 mg/kg, iv and 2 mg/kg, po; type: ADME, organism-based; details: in vivo
[10] = Plasma protein binding in Sprague-Dawley rat at 2 mg/kg, iv and 2 mg/kg, po; type: ADME, organism-based; details: read-out: PPB (converted)
Rattus norvegicus = assay: Antihypertensive activity in SHR rat assessed as reduction in systemic arterial blood pressure at 1.5 mg/kg, ip administered as single bolus dose measured for > 3 hrs; type: functional, Artery; details: route intraperitoneal
[11] = Selectivity ratio of IC50 for PDE6 to IC50 for PDE5
[12] = Selectivity ratio of IC50 for PDE11 to IC50 for PDE5
[13] = Bioavailability in Sprague-Dawley rat at 2 mg/kg, iv and 2 mg/kg, po; type: ADME, organism-based; details: in vivo
[14] = Metabolic stability in human hepatocytes assessed as compound remaining after 30 mins; type: ADME, cell-based, Hepatocyte; details: read-out: Stability

Chain of hERG (KCNH2) (Q12809 whole entry): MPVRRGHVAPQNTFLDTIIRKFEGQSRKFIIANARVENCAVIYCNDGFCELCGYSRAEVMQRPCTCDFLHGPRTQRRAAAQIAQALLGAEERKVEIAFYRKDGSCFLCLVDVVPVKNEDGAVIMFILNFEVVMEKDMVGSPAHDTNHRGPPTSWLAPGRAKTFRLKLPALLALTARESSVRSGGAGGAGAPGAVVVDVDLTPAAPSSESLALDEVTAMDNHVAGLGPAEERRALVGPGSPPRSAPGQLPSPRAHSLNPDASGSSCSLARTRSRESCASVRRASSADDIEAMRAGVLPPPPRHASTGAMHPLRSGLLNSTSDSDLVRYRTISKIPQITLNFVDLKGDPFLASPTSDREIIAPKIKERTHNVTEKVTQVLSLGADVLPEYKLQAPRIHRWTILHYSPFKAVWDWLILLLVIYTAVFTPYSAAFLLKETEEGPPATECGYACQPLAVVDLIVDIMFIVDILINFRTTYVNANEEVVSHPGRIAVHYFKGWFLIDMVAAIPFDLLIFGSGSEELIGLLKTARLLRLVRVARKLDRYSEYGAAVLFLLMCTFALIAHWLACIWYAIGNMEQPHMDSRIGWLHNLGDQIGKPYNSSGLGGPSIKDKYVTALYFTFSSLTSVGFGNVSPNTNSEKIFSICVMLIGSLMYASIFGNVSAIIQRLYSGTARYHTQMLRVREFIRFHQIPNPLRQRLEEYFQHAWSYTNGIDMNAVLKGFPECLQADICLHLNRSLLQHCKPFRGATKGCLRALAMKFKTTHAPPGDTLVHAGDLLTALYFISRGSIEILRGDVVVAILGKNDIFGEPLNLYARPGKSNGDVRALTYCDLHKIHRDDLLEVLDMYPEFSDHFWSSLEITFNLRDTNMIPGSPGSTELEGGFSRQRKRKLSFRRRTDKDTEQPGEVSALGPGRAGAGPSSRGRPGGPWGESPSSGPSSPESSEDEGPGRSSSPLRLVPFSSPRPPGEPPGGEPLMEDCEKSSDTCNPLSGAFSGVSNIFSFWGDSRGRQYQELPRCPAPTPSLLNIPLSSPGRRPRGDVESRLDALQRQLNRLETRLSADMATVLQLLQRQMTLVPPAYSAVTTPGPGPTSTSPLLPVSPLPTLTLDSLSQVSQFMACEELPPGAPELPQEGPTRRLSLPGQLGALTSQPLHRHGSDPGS
Chain of Voltage-gated inwardly rectifying potassium channel KCNH2 (Q12809 whole entry): as above

Compound | IC50 [1] | IC50 [2] | IC50 [3] | solubility [4] | remaining at 0.5 h [5] | inhibition at 10 µM (hERG (KCNH2)) | Vd [6] | inhibition (INH) [7] | clearance [8] | half-life [9] | fraction unbound [10] | Activity (Rattus norvegicus) | Ratio IC50 [11] | Ratio IC50 [12] | bioavailability [13] | remaining at 0.5 h [14]
CCCOCCn1c(=O)c(NCCN2CCOCC2)nc2ncc(-c3ccc(OC)nc3)cc21 | 0.34 nM | 61.8 nM | 1390 nM | 46 µM (≈ 21.6 µg/mL) | 18% | 34% | 18.8 L/kg | 34% | 178 mL/min/kg | 204 min | 0.235 | 25 mmHg | – | – | – | –
CCCOCCn1c(=O)c(NCCN2CCOCC2)nc2ncc(-c3ccc(OC)nc3)nc21 | 1.21 nM | 297 nM | 3560 nM | – | 12% | 11% | 5.2 L/kg | – | 151 mL/min/kg | 36 min | 0.088 | – | < 30 | 335 | – | –
CCCOCCn1c(=O)c(NCCN2CCOCC2)nc2cnc(-c3ccc(OC)nc3)nc21 | 1.21 nM | 83 nM | 1470 nM | 4.6 µM (≈ 2.16 µg/mL) | 22% | 15% | – | – | – | – | – | – | – | – | – | –
CCCOCCn1c(=O)c(NCCN2CCOCC2)nc2cnc(-c3ccc(OC)nc3)cc21 | 0.07 nM | 11.3 nM | 346 nM | 18 µM (≈ 8.43 µg/mL) | 38% | 23% | 1.6 L/kg | – | 33.6 mL/min/kg | 192 min | 0.5 | – | – | – | 21% | –
CCCOCCn1c(=O)c(NCCN2CCOCC2)nc2ccc(-c3ccc(OC)nc3)nc21 | – | 339 nM | 1540 nM | 4.6 µM (≈ 2.16 µg/mL) | 10% | 14% | 8 L/kg | – | 67.6 mL/min/kg | 186 min | 0.104 | – | – | – | 23% | –
CCCOCCn1c(=O)c(NCCN2CCOCC2)nc2ccc(-c3ccc(OC)nc3)cc21 | 0.9 nM | 177 nM | > 1990 nM | – | – | 43% | – | – | – | – | – | – | – | – | – | 20%
